Structures can show the parent of a compound that is named as a salt. No end group written: not given here.
How the values were obtained:
MOLM-13 cells [1] = experiment: Effect of co-delivery system on the activity of MOLM-13 cells (CCK-8); assay type: cell-based; conditions: human, 24 h
Procedure: The following experimental groups were set and stock solutions for experiment were configured, including:
1) Polypeptide PO-6 group (PO-6): polypeptide stock solution obtained in Example 1 (polypeptide concentration is 1 mM);
2) Doxorubicin (Dox) group: doxorubicin hydrochloride was dissolved in sterile water to obtain 1 mg/mL (1.7 mM) Dox stock solution;
3) High polymer group (mPEG2000-PCL2000): 15 mg mPEG2000-PCL2000 powder was weighted and dissolved with 1 mL PBS solution to obtain 15 mg/mL (3.3 mM) mPEG2000-PCL2000 stock solution.
4) Polypeptide PO-6 and Dox combination group (PO-6+Dox): the polypeptide stock solution in experimental group 1) and the Dox stock solution in experimental group 2) were diluted with PBS solution respectively, then mixed to obtain a mixed solution. The concentration of polypeptide was 36.2 μM, the concentration of Dox was 17.24 μM, and the weight ratio of polypeptide PO-6 to Dox was 10:1 in the mixed solution; […]
Experimental procedure: MOLM-13 cells were inoculated in 96-well U-shaped plates with 8×10^4 cells per well. […] The absorbance values (OD value) at wavelengths of 450 nm and 630 nm were measured by a microplate reader, and the percent viability of cells was calculated according to Formula 1, and the control group was the cells without drug treatment, denoted as Con; […]

HUVEC cells = experiment: Effect of co-delivery system on the activity of HUVEC cells (CCK-8); assay type: cell-based, human; conditions: Dox 0.1 μM, polypeptide 2.1 μM, 24 hours, CCK8
Procedure: (§1) HUVEC cells were inoculated in 96-well plates with 1×10^4 cells per well, and grouping was the same as experiment 8. Corresponding drug stock solutions were added into each well in each experimental group to make the final Dox concentration of each well is 0.1 μM and the final corresponding polypeptide concentration of each well is 2.1 μM. Incubated at 37° C. in 5% CO2 incubator for 24 hours, then washed with PBS, and 110 μL CCK8 diluent (including 100 μL RPMI 1640 medium+10 μL CCK-8) was added in each well, followed by incubation for 2 h. The absorbance values (OD value) at wavelengths of 450 nm and 630 nm were measured by a microplate reader, and the percent viability of cells was calculated according to Formula 1, and the control group was the cells without drug treatment, denoted as Con.

[2] = as above; assay type: cell-based, human; conditions: human, Dox 0.1 μM, polypeptide 2.1 μM, CCK8, read-out: percent viability of cells
Procedure: as §1

[3] = system: MOLM-13 cells (CD123-positive); experiment: Polypeptide binding to MOLM-13 cells by flow cytometry; conditions: FITC-labeled polypeptide 0.5, 1, 5 and 10 μM, 37° C., 0.5 h
Procedure: (§2) MOLM-13 and K562 cells were inoculated into 48-well plates with 2×10^5 cells per well, respectively, and FITC-labeled polypeptides listed in Table 1 were added to make the final concentrations of polypeptides were 0.5 μM, 1 μM, 5 μM and 10 μM, respectively. Incubate at 37° C. in 5% CO2 incubator for 0.5 h. After incubation, washed once with PBS solution, centrifuged at 1500 rpm for 5 min, and the supernatant was discarded, and 100 μL PBS solution was added to each well to re-suspend the cells, and 300 mesh sieve was used for filtration. Flow cytometry was used for determination of the mean fluorescence intensity (MFI) of MOLM-13 and K562 cells, and MFI was used as indication of the binding quantity of polypeptide on cells. FIGS. 2 and 3 show the quantity of polypeptides bound to cells.

[4] = system: K562 cells (CD123-negative); experiment: Polypeptide binding to K562 cells by flow cytometry; conditions: FITC-labeled polypeptide 0.5, 1, 5 and 10 μM, 37° C., 0.5 h
Procedure: as §2

MOLM-13 cells [5] = experiment: Binding of polypeptide, polypeptide complex to MOLM-13 observed by laser scanning confocal microscope; conditions: FITC-labeled, polypeptide 0.5 μM, 0.5 h
Procedure: MOLM-13 cells (2×10^5 cells per well) were incubated with FITC-labeled polypeptides (taking PO-6, and PO-6N as examples) and polypeptide complexes (see Table 2) at 37° C. for 30 min, and the final concentration of polypeptides was 0.5 μM (the final concentration of polypeptides in the cultivation system of polypeptide complexes was also 0.5 μM). After incubation, the cells were collected and washed twice with PBS solution, centrifuged at 1500 rpm for 5 min, and the supernatant was discarded. 400 μL paraformaldehyde in PBS aqueous solution (containing 4 wt % paraformaldehyde) was added to each well, and they were placed in dark at room temperature for 30 min, so that the cells were fixed by paraformaldehyde. washed once with PBS solution, centrifugated at 2000 rpm for 5 min, and the cells were dropped on the glass slide to dry naturally, and then was sealed with a mounting medium containing DAPI (4′, 6-diamidino-2-phenylindole). Laser scanning confocal microscope (Ex=488 nm (FITC); Ex=405 nm (DAPI)) was used for observation and photographing. MOLM-13 cells without any treatment were taken as the control group, i.e., Con. Photos of polypeptide PO-6 and PO-6N and corresponding polypeptide complexes (taking C-1 and C-1′ as examples) are shown in FIG. 9 and FIG. 10. […]

With `COc1cccc2c1C(=O)c1c(O)c3c(c(O)c1C2=O)C[C@@](O)(C(=O)CO)C[C@@H]3O[C@H]1C[C@H](N)[C@H](O)[C@H](C)O1` [Dox, doxorubicin hydrochloride, reference compound] the “percent viability of cells” value (MOLM-13 cells [1]; 0.1 μM) was 57% and the “percent viability of cells” value (HUVEC cells) was “about 50%”.
With DDDYDTRAQGTDIGCDFRRISDDD [PO-6] the “percent viability of cells” value (MOLM-13 cells [1]; 0.21 μM) was 98% and the viability at 24 h, 2.1 µM [2] was > 90%.
In the case of GGDDDYDTRAQGTDIGNDFRRISDDD [PO-6N], the “binding quantity to MOLM-13 cells (mean fluorescence intensity of FITC)” value [3] is reported as “can bind”, the “binding quantity to K562 cells (mean fluorescence intensity of FITC)” value [4] is reported as “very weak” and the “green fluorescence on the cell surface compared with Con” value (MOLM-13 cells [5]) is reported as “obvious green fluorescence”.
